According to paper PMC3437492 (British Journal of Pharmacology, 2012):
“And” between values parts separate entries of the source, which are not always exact repeats. Equal values may be shown once. Read-outs that look alike come from different tables or passages of the source.

Assays:
[1] = tested on: NA biosynthesis in P. falciparum-infected erythrocytes; experiment: Effect on [3H]-hypoxanthine incorporation into nucleic acids; type: cell-based; details: for IC50: Plasmodium falciparum, Erythrocyte
[2] = target: CTP:phosphocholine cytidylyltransferase (CCT) (Plasmodium falciparum, UniProt Q8IEE9); experiment: CCT assay; type: biochemical
[3] = tested on: P. falciparum-infected erythrocytes; experiment: Total choline entry into P. falciparum-infected erythrocytes; type: cell-based; details: no furosemide
[4] = tested on: erythrocyte choline carrier; experiment: Carrier-mediated choline entry into IRBC in the presence of 150 µM furosemide; type: cell-based, human
[5] = tested on: parasite choline transporter (poly-specific cation transporter); experiment: Choline entry into isolated; type: cell-based, P. falciparum
[6] = tested on: erythrocyte choline carrier; details: normal erythrocytes, 37°C
[7] = tested on: parasite poly-specific cation carrier; details: for Type of inhibition: inhibition of albitiazolium entry
choline kinase (CK) [8] = target: T1, choline kinase (CK) (Plasmodium falciparum, UniProt Q8IM71)
T1 sequence (Q8IM71 1-440): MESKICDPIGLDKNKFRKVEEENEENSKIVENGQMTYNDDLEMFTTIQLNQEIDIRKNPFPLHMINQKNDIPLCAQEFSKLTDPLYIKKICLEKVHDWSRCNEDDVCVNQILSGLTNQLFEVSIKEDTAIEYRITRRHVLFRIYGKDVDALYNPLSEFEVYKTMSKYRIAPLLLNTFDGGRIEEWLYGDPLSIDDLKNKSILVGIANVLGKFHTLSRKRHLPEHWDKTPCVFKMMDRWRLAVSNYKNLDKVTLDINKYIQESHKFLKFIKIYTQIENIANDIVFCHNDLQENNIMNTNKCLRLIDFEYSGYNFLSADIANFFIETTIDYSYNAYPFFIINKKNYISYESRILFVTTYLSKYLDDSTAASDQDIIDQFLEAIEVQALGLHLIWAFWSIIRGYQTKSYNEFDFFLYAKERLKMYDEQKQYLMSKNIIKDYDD

[9] = tested on: PE biosynthesis in P. falciparum-infected erythrocytes; experiment: Effect on [3H]-ethanolamine incorporation into PL; type: cell-based; details: for IC50: read-out: PE50
P. falciparum 3D7 strain = type: cell-based
normal erythrocytes = experiment: Albitiazolium entry into normal erythrocytes; type: cell-based, human; details: 30 µM albitiazolium, 8 min, 37°C
[10] = tested on: furosemide-sensitive NPP of P. falciparum IRBC; experiment: Albitiazolium entry into P. falciparum-infected erythrocytes; type: cell-based
human plasma-proteins = details: at 20 ng·mL^−1; no saturation until 5000 ng·mL^−1; ref unpublished observations; cited from earlier work
P. falciparum-IRBC = details: ref Wein et al., cited from earlier work
[11] = tested on: P. falciparum asexual blood stages; details: ref Vial et al., 2004; cited from earlier work
choline kinase (CK) [12] = target: T1, choline kinase (CK); experiment: biochemical
[13] = target: T2, choline/ethanolamine phosphotransferase (CEPT) (Plasmodium falciparum, UniProt C6KTB9); experiment: biochemical; details: 0.5 h, read-out: Concentration for complete inhibition
T2 sequence (C6KTB9 1-391): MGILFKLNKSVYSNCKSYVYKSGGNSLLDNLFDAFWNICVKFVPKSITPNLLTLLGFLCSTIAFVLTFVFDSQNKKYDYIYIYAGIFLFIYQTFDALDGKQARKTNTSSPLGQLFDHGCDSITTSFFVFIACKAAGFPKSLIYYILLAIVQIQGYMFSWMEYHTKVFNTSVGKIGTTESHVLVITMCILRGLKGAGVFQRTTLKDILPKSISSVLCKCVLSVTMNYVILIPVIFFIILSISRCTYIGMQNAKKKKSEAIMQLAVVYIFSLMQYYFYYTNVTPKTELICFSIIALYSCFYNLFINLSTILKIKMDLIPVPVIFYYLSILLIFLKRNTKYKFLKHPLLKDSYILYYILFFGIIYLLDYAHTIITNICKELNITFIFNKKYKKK

[14] = target: T2, choline/ethanolamine phosphotransferase (CEPT)
[15] = substrate: C[N+](C)(C)CCO; experiment: cells, lysate or membranes named; details: other: CK; saturating ATP; pH 7.9

Sequence of CTP:phosphocholine cytidylyltransferase (CCT) (Q8IEE9 1-896): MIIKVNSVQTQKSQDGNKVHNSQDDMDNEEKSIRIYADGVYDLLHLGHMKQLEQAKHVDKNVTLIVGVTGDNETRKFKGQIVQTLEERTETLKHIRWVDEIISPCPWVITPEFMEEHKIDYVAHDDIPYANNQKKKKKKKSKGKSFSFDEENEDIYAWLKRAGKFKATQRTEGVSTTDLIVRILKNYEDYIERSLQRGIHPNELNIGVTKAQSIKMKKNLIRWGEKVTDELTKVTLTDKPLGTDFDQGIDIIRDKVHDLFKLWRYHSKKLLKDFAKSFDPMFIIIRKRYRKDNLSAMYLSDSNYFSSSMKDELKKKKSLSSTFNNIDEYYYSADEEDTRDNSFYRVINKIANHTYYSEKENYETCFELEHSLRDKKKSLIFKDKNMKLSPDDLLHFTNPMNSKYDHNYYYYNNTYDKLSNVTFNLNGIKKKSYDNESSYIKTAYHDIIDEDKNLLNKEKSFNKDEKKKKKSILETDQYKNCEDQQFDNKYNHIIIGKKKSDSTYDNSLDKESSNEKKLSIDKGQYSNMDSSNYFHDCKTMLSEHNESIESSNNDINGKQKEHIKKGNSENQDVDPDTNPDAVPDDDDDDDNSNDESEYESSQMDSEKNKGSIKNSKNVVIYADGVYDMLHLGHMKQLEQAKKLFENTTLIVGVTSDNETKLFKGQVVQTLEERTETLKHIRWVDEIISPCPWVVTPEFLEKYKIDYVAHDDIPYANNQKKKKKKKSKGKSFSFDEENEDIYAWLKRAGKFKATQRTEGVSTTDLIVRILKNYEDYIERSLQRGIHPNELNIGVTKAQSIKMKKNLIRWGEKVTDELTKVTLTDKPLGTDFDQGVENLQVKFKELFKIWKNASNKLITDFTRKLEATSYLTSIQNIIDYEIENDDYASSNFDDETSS

N=C(N)c1ccc(OCCCCCOc2ccc(C(=N)N)cc2)cc1 [pentamidine, reference compound]
Effect on NA and PC synthesis ([1]; same conditions as albitiazolium, data not shown): affected primarily NA synthesis and not PC synthesis

C[N+](C)(C)CCOP(=O)(O)O [phosphocholine]
Vmax ([2]; CCT): 5.2 ± 1.4 pmol per 10^7 IRBC·min^−1 | Km ([2]; read-out: Km for choline-containing substrate, CCT, saturating CTP): 511 ± 24.8 µM

C[N+](C)(C)CCO [choline]
Choline uptake rate ([3]; external concentration of 80 µM choline): 1.5 pmol per 10^7 IRBC·min^−1 | Vmax of choline entry ([4]; IRBC with 150 µM furosemide): 0.69 ± 0.23 pmol per 10^7 IRBC·min^−1 and 0.7 ± 0.2 pmol per 10^7 IRBC·min^−1 | Km ([4]; read-out: Km of choline entry, IRBC with 150 µM furosemide): 11 ± 2.4 µM | Vmax of parasite choline entry ([5]; Table 3): 23.3 ± 4.5 pmol per 10^7 IRBC·min^−1 | Vmax of choline entry ([5]; free parasites (Table 2)): 23.3 ± 4.5 pmol per 10^7 cells·min^−1 | Km ([5]; read-out: Km of choline entry, saponin-freed parasites, 10 min, 37°C): 18.5 ± 3.3 µM | Vmax of choline entry [6]: 0.43 ± 0.05 pmol per 10^7 RBC·min^−1 | Km ([6]; read-out: Km of choline entry, n= 4): 12.2 ± 2.2 µM | Type of inhibition [7]: competitive inhibition | Type of inhibition ([7]; listed as Choline): Competitive | Ki ([7]; read-out: Ki on albitiazolium entry into parasites, Lineweaver–Burk): 321 µM | Vmax (choline kinase (CK) [8]): 63.3 ± 11.6 pmol per 10^7 IRBC·min^−1

Cc1c(CCO)sc[n+]1CCCCCCCCCCCC[n+]1csc(CCO)c1C.[Br-].[Br-] [albitiazolium, 3,3′-(dodecane-1,12-diyl)bis[5-(2-hydroxyethyl)-4-methyl-1,3-thiazol-3-ium] dibromide]
IC50 ([9]; Plasmodium falciparum, Erythrocyte, 3 h): > 1000 µM | IC50 ([9]; Plasmodium falciparum, Erythrocyte): > 1000 µM | IC50 ([9]; schizont stage, 2 µM [3H]-ethanolamine, 3 h): > 1000 µM | IC50 ([9]; trophozoite stage, 2 µM [3H]-ethanolamine, 3 h): > 1000 µM | Effect on ethanolamine incorporation ([9]; up to 10 µM): no significant effect | IC50 ([1]; 3 h, read-out: NA50, ring stage, [3H]-hypoxanthine, 3 h): 240 µM | IC50 ([1]; 3 h, read-out: NA50, schizont stage, [3H]-hypoxanthine, 3 h): 160 µM | IC50 ([1]; 3 h, read-out: NA50, trophozoite stage, [3H]-hypoxanthine, 3 h): 340 µM | IC50 ([1]; read-out: NA50, range over the three stages): 160 to 340 µM | Concentrations affecting NA biosynthesis relative to PC50 values ([1]; higher than the PC50, three stages): 13- to 80 fold | Type of interaction with choline (P. falciparum 3D7 strain; combination with choline): highly antagonized | Type of interaction with ethanolamine (P. falciparum 3D7 strain; combination with ethanolamine): additive effect | Type of interaction with serine (P. falciparum 3D7 strain; combination with serine): additive effect | Decrease of antimalarial activity (P. falciparum 3D7 strain; in the presence of 6 mM choline): 28 fold | Concentration from which choline entry is significantly inhibited ([3]; 15 µM choline): 4 µM | Concentration for complete inhibition of choline entry ([3]; 15 µM choline, not reached): > 36 µM | Concentration for complete inhibition of choline entry ([4]; 15 µM choline, 150 µM furosemide): 12 µM | Type of inhibition ([4]; 150 µM furosemide): competitive inhibition | Ki ([4]; read-out: Ki on choline entry, 150 µM furosemide, Lineweaver–Burk): 3.1 µM | Albitiazolium entry rate (normal erythrocytes): lower than 0.01 pmol per 10^7 RBC·min^−1 | Vmax of albitiazolium entry ([10]; 8 min, 37°C): 47.9 ± 4.9 pmol per 10^7 IRBC·min^−1 | Km ([10]; read-out: apparent Km of albitiazolium entry, 8 min, 37°C): 20.6 ± 4.3 µM | Concentration for complete inhibition of choline entry ([5]; 15 µM choline): 10 µM | Type of inhibition ([5]; inhibition of choline entry): Competitive | IC50 ([5]; read-out: IC50 on choline entry into parasites, 15 µM choline, 10 min): 2.3 ± 0.2 µM | Ki ([5]; read-out: Ki on choline entry into parasites, Lineweaver–Burk): 0.53 µM | IC100 ([2]; 0.5 h, read-out: Concentration for complete inhibition): 100000 µM | Vmax of albitiazolium entry ([7]; free parasites (Table 2)): 6.1 ± 1.1 pmol per 10^7 cells·min^−1 | Vmax of albitiazolium entry ([7]; isolated parasites, 10 min, 37°C): 6.1 ± 1.1 pmol per 10^7 parasites·min^−1 | Concentration for complete inhibition (choline kinase (CK) [8]): 100 mM | Binding to human plasma-proteins (human plasma-proteins): 33% | Accumulation in P. falciparum-IRBC (P. falciparum-IRBC; external concentration of 100 nM, unpublished observations): 400 fold | cellular accumulation ratio (CAR) (P. falciparum-IRBC; infected erythrocytes at mature stages, in preparation): ~400 | Concentration effective at treating malaria in vitro [11]: ~10 nM | IC50 (choline kinase (CK) [12]): 1500 µM | IC100 [13]: 100000 µM

C[N+](C)(C)CCOP(=O)(O)OP(=O)([O-])OC[C@H]1O[C@@H](n2ccc(N)nc2=O)[C@H](O)[C@@H]1O [CDP–choline]
Vmax [14]: 17.0 ± 1.5 pmol per 10^7 IRBC·min^−1

B1: choline kinase (CK) (Plasmodium falciparum 3D7) (protein)
chain: T1 sequence (Q8IM71 1-440)
Km [15]: 31.2 ± 4.1 µM
